In patent US9238571B2, “Formulations for c-Met kinase inhibitors” (Merck Sharp & Dohme Limited, priority 2009, dated 2016):

What was measured:
[1] = Solubility measurements of Compound A HCl salt in 250 mL SGF with citric acid pre-dissolved; format: physicochemical
Procedure: FIG. 2 describes the solubility measurements for Compound A HCl salt in 250 mL of SGF with various amounts of citric acid anhydrous pre-dissolved.
Within this formulation the amount of citric acid anhydrous available is 160.44 mg (Target fill weight for the capsule is 382.0 mg)

[2] = Clinical studies with Compound A (exposure among patients); format: in vivo
Description: The formulations of the instant invention have advantages over other formulations of c-Met kinase inhibitors. […] Based upon the sharp dependence of solubility on pH, it can be postulated that the performance of these formulations can vary based on variability in gastric pH. […] Exposure can vary due to many factors, including whether the inhibitor is taken with or without food. The formulations of the instant invention give in vivo exposures to the drug that are less sensitive to changes in gastric pH than other formulations.

- maximum solubility ([1]; 300 mg of citric acid fully dissolved in 250 mL of SGF pH 3.0, Compound A HCl salt (FIG. 2)): approximately 15 mg
- % dissolved equated from maximum solubility ([1]; for a 110 mg potency capsule, 300 mg citric acid pre-dissolved in 250 mL SGF pH 3.0): 14%
- variability in Compound A exposure among patients [2]: high variability
- exposure in patients concomitantly taking antacids ([2]; some patients with high gastric pH (antacids)): lower exposures
SMILES: Cn1cc(-c2cnc3ccc4ccc(CS(=O)(=O)NCc5ccccn5)cc4c(=O)c3c2)cn1 [Compound A, 1-[3-(1-Methyl-1H-pyrazol-4-yl)-5-oxo-5H-benzo[4,5]cyclohepta[1,2-b]pyridin-7-yl]-N-(pyridin-2-ylmethyl)methanesulfonamide]
